Assay results from patent publication US20080221205A1, “FURAN DERIVATIVES FOR PREVENTING AND CURING OSTEOPOROSIS AND PHARMACEUTICAL COMPOSITIONS CONTAINING THE SAME” (priority 2002, published 2008).

Columns and labels:
MG-63 osteoblasts = experiment: Proliferation of MG-63 osteoblasts (3H-thymidine incorporation); format: cell-based, human; conditions: concentration not given
Description: In the following tests, three kinds of cell lines were used. The human osteosarcoma cell lines, MG-63 (ATCC No. CRL-1427) and HOS (ATCC No. CRL-1543), and mouse muscle C2C12 muscle cells (ATCC No. CRL-1772) were purchased from ATCC (American Type Culture Collection, Rockville, USA), and cultured in Dulbecco's modified Eagle's medium (DMEM) supplemented with 10% fetal bovine serum (FBS).
In order to indirectly evaluate cytotoxicity of the Compound 1 and investigate effect of the Compound 1 naturally extracted on obsteoblast proliferation, proliferation of MG-63 osteoblasts was investigated by measuring the amount of ^3H-thymidine incorporated into cellular DNA upon DNA replication. The cells were aliquotted onto 24-well plates at a density of 2×10^4 cells per well. The next day, after exchanging culture medium to medium containing 1% FBS, the cells were treated with the compound 1 serially diluted at various concentrations and further cultured for 48 hrs. Four hours before finishing the culture of 48 hrs, ^3H-thymidine was added to the medium in an amount of 3 μCi per well. The cells were washed with phosphate buffer, and treated with 5% trichloroacetic acid (TCA) pre-cooled on ice. Each of the separated TCA-insoluble fractions was dissolved in 0.1 M NaOH. With a portion of each fraction, ^3H-thymidine uptake by the cells was measured using a liquid scintillation counter.

osteoclast formation = experiment: Inhibition rate of furan derivatives versus osteoclast formation (TRAP staining); format: cell-based, mice; conditions: TRAP-positive multinucleated cells, untreated control set as 100%
Method in brief: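 Non-adherent mouse bone-marrow osteoclast precursors cultured 8 days with 20 ng/ml M-CSF and 30 ng/ml RANKL in presence of compound. TRAP-positive cells with ≥3 nuclei counted; inhibition expressed relative to untreated control set at 100%.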

[1] = system: osteoclast progenitor cells; experiment: Formation of TRAP-positive multinucleated cells from osteoclast progenitors; format: cell-based, mice; conditions: concentration not given, control 132
Protocol: In order to investigate the effects of the Compound 1 on differentiation and activity of osteoclasts, when differentiation of osteoclast progenitors was induced, the activity of Tartrate-resistant acid phosphatase (TRAP) as an osteoclastic marker enzyme was investigated, and, when differentiated osteoclasts were cultured on calcium phosphate-coated plates (OAAS, OCT Inc.), resorption activity (formation of resorption pits) were measured.
First, bone marrow cells were isolated, as follow. After sacrificing 7-9 week female mice by cervical dislocation, femur and tibia were excised aseptically while removing attached soft tissues. After cutting both ends of long bones, 1 ml of an enzyme solution, containing 0.1% collagenase (Gibco), 0.05% trypsin and 0.5 mM EDTA (Gibco), was injected to the bone marrow cavity at one end using a syringe with a 26-guage needle, and bone marrow was then collected. After shaking the recovered bone marrow for 30 min, bone marrow cells were collected, and cultured in α-minimum essential medium (α-MEM) supplemented with 10% FBS for 24 hrs. […]
Osteoclasts are derived from hematopoietic cells belonging to the monocyte/macrophage lineage originating in bone marrow. […] The formed TRAP-positive multinucleated cells containing three or more nuclei were counted as osteoclasts, and the counted cell number was compared to that of a control not treated with the Compound 1.

[2] = system: ovariectomized white mice; experiment: Bone mineral densitometer test, therapeutic effect on osteoporosis; format: in vivo; conditions: test group
Protocol: After ovariectomy, female white mice weighing about 250 g were bred for four weeks. After checking the onset of osteoporosis in the mice, each of the mice was orally administered with 220 μl of the Compound 1 dissolved in 30 ml water for four weeks.
BMD measurement was performed before ovariectomy and every week for eight weeks after ovariectomy, using a bone mineral densitometer, XCT 540 Research SA made in Germany.
After anesthetizing the mice being bred in cages by intraperitoneal injection of a mixture of Ketamine HCl (ketara 10 mg/kg) and 2% xylazine HCl (Roupun 0.15 ml/kg), BMD measurement was made at a voxel size of 0.1×0.1 mm^2 and threshold values of 280 mg/cm^2 for cancellous bone and 500 mg/cm^2 for compact bone. The analysis sites at the proximal tibias were determined by Scout scans (10 mm/sec), and BMD was measured at three slices at the determined sites by CT scans (7 mm/sec). BMD measurement was performed twice or more at the same site every week during eight weeks after ovariectomy.

[3] = listed as compound prepared in Example 1

## O=Cc1ccc(CO)o1 [Compound 1, 5-hydroxymethylfuran-2-carboxyaldehyde]
MG-63 osteoblasts
  Proliferation rate of osteoblasts compared to control: over 105%
MG-63 osteoblasts; [3]
  Proliferation rate of osteoblasts compared to control: ≥ 105%
Osteoclast formation; 0.1 μM
  Inhibition rate against osteoclast formation, %: 0%
Osteoclast formation; 1 μM
  Inhibition rate against osteoclast formation, %: 0%
Osteoclast formation; 10 μM
  Inhibition rate against osteoclast formation, %: 30%
[1]
  Number of TRAP-positive multinucleated cells: 77
[1]; [3]
  Number of TRAP-positive multinucleated cells: remarkably reduced
[2]; Week 1 after ovariectomy (before administration), control −3
  Change in BMD, %: −2.9%
[2]; Week 3 after ovariectomy (before administration), control −15
  Change in BMD, %: −14%
[2]; Week 4 after ovariectomy (start of oral 220 μl administration), control −19
  Change in BMD, %: −17%
[2]; Week 7 after ovariectomy, oral 220 μl from week 4, control −25.9
  Change in BMD, %: −19%
